The text below walks through data of patent US8173643B2, “N-substituted thiomorpholine derivatives as the inhibitors of dipeptidyl peptidase IV and the pharmaceutical uses thereof” (Beijing Molecule Science and Technology Co., Ltd., priority 2007, dated 2012).

The conditions of data set [1]: pig, in vivo, cited from earlier work.
For a further data set, the system named is obese mouse. The conditions noted are these: 10 mg/kg, 2 times/d, long-term treatment; cited from earlier work.
The next data set has as its target T1, DPP-IV (Homo sapiens, UniProt P27487).
T1 construct: endogenous in cells; host or cells: Caco-2 (human colon carcinoma), differentiated; NP-40 lysate, 35000 g supernatant
Nature of the data set: Determination of DPP-IV inhibitory activity and IC50 (enzyme from Caco-2 cell lysate, absorbance at 405 nm). The conditions noted are these: for inhibition at 0.1 µM: Concentration 100 nM; for inhibition at 0.3 µM: Concentration 300 nM. Type of data set: biochemical. On the procedure: Cultivation of human colon carcinoma cell-line cells (Caco-2): Caco-2 cells were cultivated in a culture medium of DMEM (high glucose, containing 10% fetal bovine serum, 1% NAA), and the cell lines were passaged in a proportion of 1:1 or 1:2; after nearly reaching confluence, the cells were further cultivated for 2-3 weeks, while changing the medium once every 2-3 days.
Preparation of DPP-IV: the cells were washed with a pre-cooled PBS for 2-3 times, and 0.5-1 ml ice-cold 10 mM Tris-HCl (containing 0.15 M NaCl, 0.04 t.i.u aprotinin, 0.5% nonionic detergent P40, pH 8) was added to each culture bottle to lysate the cells, followed by collecting them in a centrifuge tube. After centrifugation at 4° C., 35000 g for […], the obtained supernatant was collected, and subjected to a protein content detection, and then stored in a low temperature refrigerator.
The test groups included enzyme control group, substrate control group, enzyme reaction control group, and compound group, and the test was carried out in a 96-pore plate, using 150 μL reaction system. In the 96-pore plate, a diluted test compound was added in the compound group, 30 μL/pore; 20 μL DPP-IV solution was added in the enzyme control group, as well as in the compound group; an analytic buffer (25 mM Tris-HCl pH 7.4, containing 140 mM NaCl, 10 mM KCl, 1% bovine serum albumin) was added in 130 μL to the enzyme control group, in 125 μL to the substrate control group, in 105 μL to the enzyme reaction control group, and in 75 μL to the compound group; and then 25 μL substrate (1 mM) was added, followed by reacting at room temperature for 10 min. No substrate was added in the enzyme control group. After reacting for 10 min, 25% glacial acetic acid was added in 19 μL/pore to terminate the reaction. The absorbance was determined by using an enzyme calibrating apparatus at a wavelength of 405 nm.

The test system of data set [2] is streptozotocin-induced DM male mouse. To be noted: 2 times/d, after 7 weeks; cited from earlier work.

Counter-ions that a name gives are not always drawn.

T1 sequence (P27487 whole entry): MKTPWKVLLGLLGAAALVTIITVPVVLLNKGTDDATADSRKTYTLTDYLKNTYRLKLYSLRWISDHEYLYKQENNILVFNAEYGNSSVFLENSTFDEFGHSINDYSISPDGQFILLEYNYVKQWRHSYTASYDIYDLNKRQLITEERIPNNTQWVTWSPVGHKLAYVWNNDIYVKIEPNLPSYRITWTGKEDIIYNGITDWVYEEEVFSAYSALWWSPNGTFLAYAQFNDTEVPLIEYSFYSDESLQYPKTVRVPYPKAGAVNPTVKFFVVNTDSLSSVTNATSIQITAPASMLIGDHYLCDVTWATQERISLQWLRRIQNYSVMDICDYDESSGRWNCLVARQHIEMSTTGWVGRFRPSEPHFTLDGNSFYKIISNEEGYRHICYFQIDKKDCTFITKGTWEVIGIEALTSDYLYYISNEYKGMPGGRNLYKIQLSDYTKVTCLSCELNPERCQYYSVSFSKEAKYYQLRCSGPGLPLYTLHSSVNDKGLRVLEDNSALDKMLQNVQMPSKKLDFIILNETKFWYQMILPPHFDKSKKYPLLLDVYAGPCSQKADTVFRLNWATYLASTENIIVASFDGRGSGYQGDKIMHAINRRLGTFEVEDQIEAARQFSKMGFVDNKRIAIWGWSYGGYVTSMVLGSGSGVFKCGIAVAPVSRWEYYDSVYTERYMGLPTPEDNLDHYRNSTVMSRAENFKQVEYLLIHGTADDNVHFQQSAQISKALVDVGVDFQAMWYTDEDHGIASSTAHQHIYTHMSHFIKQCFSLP

For the compound “GIP: gastric inhibitory peptide, an incretin secreted by K cells, substrate of DPP-IV”, the “immunocompetence of intact GIP shown by radioimmunoassay” value in data set [1] (iv) is 14.5%. Moreover, in data set [1], the “immunocompetence of GIP” value was 49%.
`CC(C)(C)[C@H](N)C(=O)N1CCC[C@H]1C#N` [FE 999011]: the “postponement of the occurrence of hyperglycemia” value with obese mouse was 21 days.
For `CC(C)C[C@@H](N)C(=O)N1CCSC[C@H]1C#N` [Compound 2, (R)-3-cyano-4-(2-amino-4-methyl-pentanoyl)thiomorpholine hydrochloride], at DPP-IV (read-out: Inhibitory rate(%)), the inhibition at 0.1 µM stood at 24.1 ± 2.41% and the inhibition at 0.3 µM turned out to be 47.2 ± 0.64%.
A word on the IC50: it is the concentration needed to halve the response being measured. The low end stands for inhibition by little substance, the high end for a need for much substance. With `CC(C)[C@@H](N)C(=O)N1CCSC[C@H]1C#N` (stereo in doubt) [Compound 1, (R)-3-cyano-4-(2-amino-3-methyl-butyryl)thiomorpholine hydrochloride], the inhibition at 0.01 µM at DPP-IV (Concentration 10 nM, read-out: Inhibitory rate(%)) is 7.65 ± 0.68%. Moreover, the inhibition at 0.03 µM at DPP-IV (Concentration 30 nM, read-out: Inhibitory rate(%)) was 13.2 ± 1.92%. Besides, on DPP-IV (read-out: Inhibitory rate(%)), the inhibition at 0.1 µM is 40.3 ± 3.09% and the inhibition at 0.3 µM amounted to 73 ± 1.74%. In addition, the inhibition at 1 µM at DPP-IV (Concentration 1000 nM, read-out: Inhibitory rate(%)) came out at 101 ± 1.36%. Also, the IC50 against DPP-IV (DPP-IV from Caco-2 cells) came to 189 ± 26.4 nM.
As for `CC[C@H](C)[C@H](N)C(=O)N1CCSC1` [P32/98], in data set [2], the “fraction of islet β cells increased, as compared with the control group” value is 12%; the “number of islets increased, as compared with the control group” value is 35%; the “number of overall β cells increased, as compared with the control group” value is reported as 120%; the plasma insulin level entry was “approaching to normal”.
